EP0214862A2, “Anti-tumour platinum complexes, their preparation and their use” (priority 1985, dated 1987)

Tests used:
[1] = system: cisplatin-resistant L1210/CDDP cells; test: Anti-tumour activity against cisplatin-resistant L1210/CDDP leukemia in mice (Experiment 2); format: in vivo
From the text: (§1) In the following experiments, the test animals used were 8 to 9 week old female mice of the CDF1 strain, each weighing 20-25 g. The standard L1210 leukemia cells were supplied by Dr. T. Yamamoto of the Institute of Medical Science, University of Tokyo, Japan, whilst the cisplatin-resistant L1210 cell line (L1210/CDDP) was supplied by Dr. T. Tashiro of the Cancer Chemotherapy Centre, Japanese Foundation for Cancer Research, Tokyo, Japan.
(§2) CDF1 mice were inoculated intraperitoneally with L1210 cells ([…]). […] Each drug was injected intraperitoneally on days 1 and 4 following tumour implantation. The number of mice in each test group was 6.
(§3) The increase in life span (ILS) was calculated as follows: • ILS% = [(St/Su) - 1] x 100 • in which: • St = weighted median number of days survival of treated mice; and • Su = weighted median number of days survival of untreated mice.
The procedures described in Experiment 1 were repeated exactly, except that the tumour cells were cisplatin-resistant L1210/CDDP cells.

[2] = system: L1210 cells; test: Anti-tumour activity against L1210 leukemia inoculated intraperitoneally in mice (Experiment 1); format: in vivo; settings: L1210, CDF1 mice
Method: In the following experiments, the test animals used were 8 to 9 week old female mice of the CDF1 strain, each weighing 20-25 g.
as §2, §3

[3] = system: cisplatin-resistant L1210 cell line (L1210/CDDP); test: In vitro sensitivity of the cisplatin-resistant cell line versus parent L1210; format: cell-based, mouse; settings: L1210/CDDP relative to the parent L1210 cell line
From the text: as §1

[4] = Dose 5 mg/kg intraperitoneally on days 1 and 4, CDF1 mice
[5] = Dose 5 mg/kg intraperitoneally on days 1 and 4
[6] = Dose 10 mg/kg intraperitoneally on days 1 and 4
[7] = Dose 20 mg/kg intraperitoneally on days 1 and 4
[8] = Dose 40 mg/kg intraperitoneally on days 1 and 4
[9] = Dose 80 mg/kg intraperitoneally on days 1 and 4
[10] = Dose 2.5 mg/kg intraperitoneally on days 1 and 4, CDF1 mice
[11] = Dose 0.625 mg/kg intraperitoneally on days 1 and 4
[12] = Dose 1.25 mg/kg intraperitoneally on days 1 and 4
[13] = Dose 2.5 mg/kg intraperitoneally on days 1 and 4
[14] = Dose 30 mg/kg intraperitoneally on days 1 and 4, CDF1 mice
[15] = Dose 60 mg/kg intraperitoneally on days 1 and 4, CDF1 mice

C1CCC2[NH][Pt-2]3([NH]C2C1)[O]C1=[N+](CCN1)[Pt-2]1([NH2+]C2CCCCC2[NH2+]1)[OH+]3 (stereo not drawn) [Example 1, Hydroxo(ethyleneurea-N,O)-bis(cis-(trans-(ℓ)-1,2-diaminocyclohexane)platinum (II)] nitrate]
Body weight change from days 1 to 7 [1, 4]: +2.4
Body weight change from days 1 to 7 ([1]; Dose 10 mg/kg intraperitoneally on days 1 and 4, CDF1 mice): +2.3
Body weight change from days 1 to 7 ([1]; Dose 20 mg/kg intraperitoneally on days 1 and 4, CDF1 mice): +2.2
Body weight change from days 1 to 7 ([1]; Dose 40 mg/kg intraperitoneally on days 1 and 4, CDF1 mice): -0.3
Body weight change from days 1 to 7 ([1]; Dose 80 mg/kg intraperitoneally on days 1 and 4, CDF1 mice): -0.5
Body weight change from days 1 to 7 ([1]; Dose 160 mg/kg intraperitoneally on days 1 and 4, CDF1 mice): -1.8
Wt. Change (Change in body weight from day 1 to day 7) [2, 5]: +2.6 g
Wt. Change (Change in body weight from day 1 to day 7) [2, 6]: +2.8 g
Wt. Change (Change in body weight from day 1 to day 7) [2, 7]: +2.2 g
Wt. Change (Change in body weight from day 1 to day 7) [2, 8]: +0.4 g
Wt. Change (Change in body weight from day 1 to day 7) [2, 9]: +0.2 g
Wt. Change (Change in body weight from day 1 to day 7) ([2]; Dose 160 mg/kg intraperitoneally on days 1 and 4): -3.0 g
toxic (number of mice) ([2]; Dose 240 mg/kg intraperitoneally on days 1 and 4): - (2/6, toxic)
toxic (number of mice) ([2]; Dose 320 mg/kg intraperitoneally on days 1 and 4): - (5/6, toxic)

N.N.[Cl][Pt][Cl] [cisplatin]
degree of cisplatin resistance in terms of in vitro sensitivity [3]: 40 fold
30-day survivors [1, 10]: 0/5
Body weight change from days 1 to 7 [1, 10]: +1.0
ILS(%) [1, 10]: 2%
Median survival days [1, 10]: 9.3 days
30-day survivors [1, 4]: 0/6
Body weight change from days 1 to 7 [1, 4]: -1.9
ILS(%) [1, 4]: 9%
Median survival days [1, 4]: 9.9 days
ILS (Increase in life span) [2, 11]: 8%
Med.S.T. (Median survival time) [2, 11]: 9.1 days
Survivors on day 42 [2, 11]: 0/6
Wt. Change (Change in body weight from day 1 to day 7) [2, 11]: +1.6 g
ILS (Increase in life span) [2, 12]: 15%
Med.S.T. (Median survival time) [2, 12]: 9.7 days
Survivors on day 42 [2, 12]: 0/6
Wt. Change (Change in body weight from day 1 to day 7) [2, 12]: +2.5 g
ILS (Increase in life span) [2, 13]: 58%
Med.S.T. (Median survival time) [2, 13]: 13.3 days
Survivors on day 42 [2, 13]: 0/6
Wt. Change (Change in body weight from day 1 to day 7) [2, 13]: +1.7 g
ILS (Increase in life span) [2, 5]: 364%
Med.S.T. (Median survival time) [2, 5]: 39.0 days
Survivors on day 42 [2, 5]: 2/6
Wt. Change (Change in body weight from day 1 to day 7) [2, 5]: -3.5 g
ILS (Increase in life span) [2, 6]: 23%
Med.S.T. (Median survival time) [2, 6]: 10.3 days
Survivors on day 42 [2, 6]: 0/6
Wt. Change (Change in body weight from day 1 to day 7) [2, 6]: -5.5 g

carboplatin
30-day survivors [1, 14]: 0/6
Body weight change from days 1 to 7 [1, 14]: +1.2
ILS(%) [1, 14]: 9%
Median survival days [1, 14]: 9.9 days
30-day survivors [1, 15]: 0/6
Body weight change from days 1 to 7 [1, 15]: -0.6
ILS(%) [1, 15]: 8%
Median survival days [1, 15]: 9.8 days
ILS (Increase in life span) [2, 5]: 7%
Med.S.T. (Median survival time) [2, 5]: 9.0 days
Survivors on day 42 [2, 5]: 0/6
Wt. Change (Change in body weight from day 1 to day 7) [2, 5]: +1.3 g
ILS (Increase in life span) [2, 6]: 7%
Med.S.T. (Median survival time) [2, 6]: 9.0 days
Survivors on day 42 [2, 6]: 0/6
Wt. Change (Change in body weight from day 1 to day 7) [2, 6]: +2.0 g
ILS (Increase in life span) [2, 7]: 7%
Med.S.T. (Median survival time) [2, 7]: 9.0 days
Survivors on day 42 [2, 7]: 0/6
Wt. Change (Change in body weight from day 1 to day 7) [2, 7]: +0.8 g
ILS (Increase in life span) [2, 8]: 10%
Med.S.T. (Median survival time) [2, 8]: 9.2 days
Survivors on day 42 [2, 8]: 0/6
Wt. Change (Change in body weight from day 1 to day 7) [2, 8]: +0.4 g
ILS (Increase in life span) [2, 9]: 23%
Med.S.T. (Median survival time) [2, 9]: 10.3 days
Survivors on day 42 [2, 9]: 0/6
Wt. Change (Change in body weight from day 1 to day 7) [2, 9]: -0.5 g
